Counter-ions that a name gives are not always drawn.
Tests used:
BCS classification = assay type: physicochemical; conditions: free base
Source text: BCS Class 4 compounds normally have low bioavailability due to both low dissolution rate and permeability, and the limitation of permeability on absorption means that such salts would not usually be expected exert a substantial impact on absorption (See for example: Dressman et al. (2001) Pharm Tech. July: 68).

[1] = Dissolution rate of the crystalline salt; assay type: physicochemical; conditions: crystalline salt compared to the free base and other salts
[2] = Plasma levels of Compound 1 in fasted dogs after oral dispersion doses, salt versus free base; assay type: in vivo, beagle dogs; conditions: crystalline salt compared to the free base and other salts
Protocol: Single doses of 150 mg were administered orally to fasted beagle dogs weighing 12-17 kg and about 2 to 6 years old on each of three dosing days. Each dosing day was 1 week apart.
All formulations were prepared extemporaneously just prior to dosing by adding 7.5 mL of the appropriate dispersing solution via a 10 mL disposable syringe, to vials containing 150 mg free base equivalents of the appropriate drug form, capping and vortex mixing for 30 seconds to form a dispersion.
The dispersion was removed from the vial using the disposable syringe and dosed to the animal via a gavage tube positioned into the stomach. The vials were rinsed twice by adding, for each of the two rinses, a separate 15 mL aliquot of water (total rinse volume=30 mL) via a 20 mL disposable syringe, capping, vortex mixing for 5 seconds, removing the wash solution from the vial using the disposable syringe and dosing to the animal via the gavage tube.
Dogs were fed about 400 g of Special Diet Services Laboratory Diet A each day and allowed water ad libitum. Whole blood (2 mL) in lithium heparin tubes were taken from the jugular vein immediately prior to dosing and at 0.5, 1, 2, 3, 4, 5, 6, 8, 12, 18, 24, 36 and 48 hours. The blood was centrifuged at 3000 rpm for 15 minutes and plasma was removed into plain blood tubes and the plasma stored at −20° C. until analysis. […]

Structure (SMILES) | BCS Class (BCS classification) | dissolution rate [1] | bioavailability [2]
Cn1cnc2c(F)c(Nc3ccc(Br)cc3Cl)c(C(=O)NOCCO)cc21 [Compound 1, 6-(4-bromo-2-chloro-phenylamino)-7-fluoro-3-methyl-3H-benzoimidazole-5-carboxylic acid (2-hydroxy-ethoxy)-amide] | BCS Class 4 |  | 
Cn1cnc2c(F)c(Nc3ccc(Br)cc3Cl)c(C(=O)NOCCO)cc21 [hydrogen sulfate salt, 6-(4-bromo-2-chloro-phenylamino)-7-fluoro-3-methyl-3H-benzoimidazole-5-carboxylic acid (2-hydroxy-ethoxy)-amide hydrogen sulfate] |  | particularly high | particularly high

From patent US9562017B2, “Hydrogen sulfate salt” (Array BioPharma Inc., priority 2005, dated 2017)
